Data as given in US20040122209A1, “Products for regulating the degradation of collagen and methods for identifying same” (Shriners Hospital For Children, priority 2002, published 2004).

Legend:
Type in all cases: cell-based
[1] = system: bovine articular cartilage explant; test: Proteoglycan (GAG) content and release in bovine explant culture; details: subpeptides at 1 and 10 μM
Method: The cartilages were prepared as previously described (Dahlberg, L. et al. (2000) supra. In brief, the cartilage samples were washed three times with basal culture medium containing Dulbecco's modified Eagle's medium (DMEM; Gibco BRL, Life Technologies, Grand Island, N.Y.) with 20 mM HEAPS buffer (pH 7.4) (Gibco BRL), 45 mM NaHCO3, 100 units/ml penicillin, 100 μg/ml streptomycin and 150 μg/ml gentamycin sulphate (Medium A). Full-depth cartilage slices from a single area, around 20 mm×20 mm were cut vertical to the articular surface and then into cubes of approximately 2 mm×2 mm (5-7 cubes were randomly obtained and wet weights about 50-70 mg/well determined). The cartilage was assigned to 48 well plate (ca 40 mg/well) and kept in Medium A supplemented with 50 μg/ml ascorbic acid, 0.1 mg/bovine serum albumin, 50 μg/ml insulin, 5.0 μg/ml and 5.0 μg/ml sodium DMEM alone at 37° C. in 95% air/5% CO2. The cartilage was precultured for 2 days and medium was changed at day 0. Thereafter medium (as described in pellet cultures) was replaced every four days. Various CNBr fragments and/or synthetic peptides were freshly added from day 0 at each medium change. Thereafter, cartilage explants and conditioned media were harvested and stored at −20° C. In order to show the specificity of the peptide fragments of one embodiment on degradation of type II collagen as compared with proteoglycan, primarily aggrecan, sulphated glycosaminoglycan (GAG) content was determined in both the α-chymotrypsin and proteinase K digests for total proteoglycan (predominantly aggrecan) content in cell pellets, cartilage explants and also in conditioned media. Measurement of release of proteoglycan into media was tested using dimethylene blue dye binding as previously described (Dahlberg, L. et al. (2000) supra).

[2] = system: adult human articular cartilage; test: RT-PCR of hypertrophy and degradation genes in human articular cartilage explant culture
Method: (§1) Total RNA was isolated from chondrocytes or cartilage explants by the guanidine isothiocyanate procedure according to Chomczynski and Sacchi (Chomczynski, P. et al., Anal. Biochem. 162:156-9 (1987)) with some modifications. Briefly, chondrocytes (1-2×10^6 cells) or cartilage tissue (200-300 mg) were solubilized in solution D (4 M guanidine isothiocyanate, 20 mM sodium acetate/pH 5.2, 0.1 M 2-mercaptoethanol and 0.5% N-lauroylsarcosine). One volume of isopropanol was added to the mixture and all proteins and nucleic acids were precipitated at −20° C. overnight. […] The total RNA pellet was resuspended in diethyl pyrocarbonate-treated (DEPC) water and the amount of total RNA was measured by reading optical density at 260 nm. […]
(§2) One microliter of reverse transcribed total RNA was incubated with 2.5 U of AmpliTaq™ DNA polymerase (Perkin Elmer, Branchburg, N.J.) in 50 mM KCl, 1.5 mM MgCl2, 10 mM Tris-HCl, pH 8.3, 200 μM dNTP mix and 0.5 μmol each of oligonucleotide primers in 50 μl reaction mixture. […] The digital images of the gel were analyzed using NIH 1.60 imaging software to evaluate the pixel intensity of the band of the PCR products. […] The band intensities were determined to be below saturation. […]
(§3) MMP-13 expression was maximal by 12 days. Gene expression was determined by RT-PCR analyses of mRNA in the manner used to detect expression of MMPs and cytokines described elsewhere. […]

[3] = system: adult bovine articular cartilage; test: RT-PCR of hypertrophy and degradation genes in bovine articular cartilage explant culture
Method: as §1, §2, §3

[4] = induction within a 24-48 hr period

## ERGPPGPQGARGFPGTPGLPGVK [CB12-II]
[1]
  proteoglycan breakdown: no significant effect
[2]
  time at which MMP-13 expression was maximal: ≤ 12 days
[2]; [4]
  expression of genes characteristic of chondrocyte hypertrophy (COLX, MMP-9, TGF-B1, IHH, MMP-13, CBFA1, SOX 9, bFGF, pTHrP, caspase-3, MT1-MMP, IL-1B, MMP-1): rapid induction
[3]
  time at which MMP-13 expression was maximal: ≤ 12 days
[3]; [4]
  expression of genes characteristic of chondrocyte hypertrophy (COLX, MMP-9, TGF-B1, IHH, MMP-13, CBFA1, SOX 9, bFGF, pTHrP, caspase-3, MT1-MMP, IL-1B, MMP-1): rapid induction
